The experiment relates to pathway closure. Nature of the experiment: Inhibition of pathway closure by chemicals, methylene blue dye score after microprotrusion array pretreatment. It is filed as in vivo, hairless guinea pigs. The protocol:
Inhibition of pathway collapse by chemical agents was studied following pretreatment of the skin with a microprotrusion array and application of a formulation containing the agent for 24 h. Quantitation was performed by evaluation of dye impregnation of the pathways.
Application of the microprotrusion array was performed with an impact applicator. […] Following application, the stretching tension was released. […] The guinea pig received a second system containing a different formulation on the opposite site. Twenty four hours after application, three systems from each group were removed and residual formulation washed from the skin. The skin was stained with a 1% methylene blue solution. Excess dye was thoroughly removed with 70% isopropyl alcohol pads and a picture of the site was taken. Pictures were scored on a 0 to 5 scale, 5 being the dye uptake obtained immediately following microprotrusion array application and 0 being the dye uptake obtained after 24 h contact with a control formulation. A score of 0.5 or greater was considered significant. Various osmotic agents, anticoagulants, antiinflammatory agents, gelling agents as well as gels of different pH and various additives were tested (Table II).

Where [1] appears, read: additive concentration 11%, 24 h, scale 0 to 5, 0.5 or greater significant.
Where [2] appears, read: 24 h, methylene blue evaluation, Table II.
Setting [3] is: additive concentration 2%, 24 h, scale 0 to 5, 0.5 or greater significant.
Where [4] appears, read: additive concentration 23%, 24 h, scale 0 to 5, 0.5 or greater significant.
Setting [5] is: additive concentration 50%, 24 h, scale 0 to 5, 0.5 or greater significant.
Setting [6] is: additive concentration 5%, 24 h, scale 0 to 5, 0.5 or greater significant.
The mark [7] stands for this setting: additive concentration 12%, 24 h, scale 0 to 5, 0.5 or greater significant.
[8] abbreviates: additive concentration 10%, 24 h, scale 0 to 5, 0.5 or greater significant.
Where [9] appears, read: additive concentration 1%, 24 h, scale 0 to 5, 0.5 or greater significant.
Setting [10] is: additive concentration 0.05%, 24 h, scale 0 to 5, 0.5 or greater significant.
[11] abbreviates: additive concentration 30%, 24 h, scale 0 to 5, 0.5 or greater significant.
Setting [12] is: additive concentration 13%, 24 h, scale 0 to 5, 0.5 or greater significant.

Values joined by “and” are separate entries in the source; they are usually repeats but may differ in a detail not shown here. Equal entries are not always repeated. Structures can show the parent of a compound that is named as a salt. Ends that are not written are not given here.

Consider `CCO` [Ethanol], for which, where the note is “additive concentration 0% (4.3 M), 24 h, scale 0 to 5, 0.5 or greater significant”, the “Score (methylene blue)” value amounted to 0 ± 0.
On to `Cl.NC(CO)(CO)CO` [Tromethamine hydrochloride], for which the “Effect on pathway closure (in words)” value (guinea pig, in vivo) is reported as “most effective agents”. The “Score (methylene blue)” value (guinea pig, in vivo, hydrochloride) is 3.7 ± 0.3 and 2.3 ± 0.3.
Regarding `O=C(O)CC(O)C(=O)O` (centres unmarked) [Malic acid, disodium salt], under setting [1], the “Score (methylene blue)” value is listed as 2.1 ± 0.3.
Consider `CCCCCCCCCCCCOS(=O)(=O)[O-].[Na+]` [Sodium dodecyl sulfate], for which, under “additive concentration 0.01%, 24 h, scale 0 to 5, 0.5 or greater significant”, the “Score (methylene blue)” value was 0 ± 0.
For `NCC(=O)O` [Glycine], the “Score (methylene blue)” value (additive concentration 9%, 24 h, scale 0 to 5, 0.5 or greater significant) is 1.8 ± 0.3.
Turning to `O=C(O)c1ccccc1O` [salicylic acid], the “Effect on pathway closure (in words)” value under setting [2] is “had an effect on pathway closure”.
As for `C[C@H]1C[C@H]2[C@@H]3CCC4=CC(=O)C=C[C@]4(C)[C@@]3(F)[C@@H](O)C[C@]2(C)[C@@]1(O)C(=O)COP(=O)([O-])[O-].[Na+].[Na+]` [Betamethasone phospate Na, reference compound], the “Effect on pathway closure (in words)” value under setting [2] is listed as “significant effect”. The “Score (methylene blue)” value under setting [3] was found to be 2.3 ± 0.4.
As to `OC[C@@H](O)[C@@H](O)[C@H](O)[C@@H](O)CO` [Sorbitol], the “Effect on pathway closure (in words)” value under setting [2] is “most effective agents”. In addition, the “Score (methylene blue)” value reads like this: under setting [1], 1.3 ± 0.6; under setting [4], 3.3 ± 0.3; under setting [5], 3.3 ± 0.3.
Regarding PEG-4, the “Score (methylene blue)” value under setting [5] came out at 2 ± 0.6.
Turning to `O=C[C@H](O)[C@@H](O)[C@H](O)[C@H](O)CO` [D-Glucose], the “Effect on pathway closure (in words)” value under setting [2] was “most effective agents”. The “Score (methylene blue)” value is 1.5 ± 0.0 under setting [6], 1.8 ± 0.6 under setting [1], 3.5 ± 0.5 under setting [4] and 4.0 ± 0.3 under setting [5].
Regarding `CCOCCOCCO` [Ethoxydiglycol], under setting [5], the “Score (methylene blue)” value is 0.5 ± 0.3.
`O=C(O)C(O)C(O)C(=O)O` (centres unmarked) [Tartaric acid, disodium salt]: the “Score (methylene blue)” value under setting [7] came out at 1.5 ± 0.4.
Regarding `O[C@H]1[C@H](O)[C@@H](O)[C@H](O)[C@@H](O)[C@H]1O` [Inositol], the “Score (methylene blue)” value under setting [8] is given as 1.5 ± 0.3.
As to `OCCOCCO` [Diethylene glycol], where the note is “guinea pig, in vivo”, the “Effect on pathway closure (in words)” value is given as “most effective agents” and the “Score (methylene blue)” value is 3.2 ± 0.2.
As to `OCCCCO` [1-4 Butane diol], the “Score (methylene blue)” value (guinea pig, in vivo) is recorded as 3.0 ± 0.3.
Consider `O=C(O)CC(O)(CC(=O)O)C(=O)O` [Citric acid disodium salt], for which the “Score (methylene blue)” value is, setting by setting: (additive concentration 0.5%, 24 h, scale 0 to 5, 0.5 or greater significant) 0 ± 0; under setting [9], 0.3 ± 0.2; (additive concentration 3%, 24 h, scale 0 to 5, 0.5 or greater significant) 1.2 ± 0.2.
Consider `OC[C@@H](O)[C@@H](O)[C@@H](O)CO` [Adonitol], for which the “Effect on pathway closure (in words)” value under setting [2] was “most effective agents”. The “Score (methylene blue)” value runs as follows: under setting [1], 3.0 ± 0.3; under setting [4], 3.5 ± 0.3; under setting [5], 3.7 ± 0.3.
In the case of “Tyr-Ile-Gly-Ser-Arg-NH2 (YIGSR-NH2) [reference compound]”, the “Score (methylene blue)” value under setting [10] was 0.3 ± 0.3.
For the molecule `O=C(O)CO` [Glycolic acid, sodium salt], the “Score (methylene blue)” value reads like this: (additive concentration 6%, 24 h, scale 0 to 5, 0.5 or greater significant) 1.7 ± 0.1; under setting [7], 2.6 ± 0.1; (additive concentration 24%, 24 h, scale 0 to 5, 0.5 or greater significant) 2.7 ± 0.1.
Heparin [reference compound]: the “Score (methylene blue)” value under setting [3] is 0.3 ± 0.2.
Take `Cl.N` [Ammonium chloride]: the “Score (methylene blue)” value (guinea pig, in vivo) is on record as 2.6 ± 0.1.
Consider `O=C[C@@H](O)[C@H](O)[C@@H](O)[C@@H](O)CO` [L-Glucose], for which the “Score (methylene blue)” value under setting [4] came out at 3.5 ± 0.3.
On to `OC[C@H]1O[C@H](O[C@H]2O[C@H](CO)[C@@H](O)[C@H](O)[C@H]2O)[C@H](O)[C@@H](O)[C@@H]1O` [Trehalose], for which the “Score (methylene blue)” value under setting [5] is recorded as 1.5 ± 0.0.
For `OC[C@H]1O[C@@](CO)(O[C@H]2O[C@H](CO)[C@@H](O)[C@H](O)[C@H]2O)[C@@H](O)[C@@H]1O` [Sucrose], under setting [5], the “Score (methylene blue)” value came to 1.7 ± 0.6.
`CC(=O)O.N` [Ammonium acetate]: the “Score (methylene blue)” value (guinea pig, in vivo) is reported as 2.1 ± 0.1.
Consider `OC[C@@H](O)[C@@H](O)CO` [Erythritol], for which the “Score (methylene blue)” value under setting [11] stood at 3.3 ± 0.4.
On to `Cl.N[C@H]1C(O)O[C@H](CO)[C@H](O)[C@@H]1O` (some centres unmarked) [Galactosamine hydrochloride], for which the “Score (methylene blue)” value under setting [5] is 2.8 ± 0.3.
For `[Ca+2].[Cl-].[Cl-]` [Calcium chloride], the “Score (methylene blue)” value (guinea pig, in vivo) worked out at 0.7 ± 0.4.
For `CCCCCCCCCCCCCCCC[n+]1ccccc1` [Cetyl pyridinium chloride], the “Score (methylene blue)” value (guinea pig, in vivo) came to 0 ± 0.
On to PEG-12, for which, under setting [5], the “Score (methylene blue)” value stood at 0 ± 0.
On to `[Cl-].[Na+]` [NaCl], for which the “Score (methylene blue)” value (guinea pig, in vivo) is on record as 1.8 ± 0.2.
Take Arg-Gly-Asp [reference compound]: under setting [9], the “Score (methylene blue)” value turned out to be 0.7 ± 0.4.
Consider Laminin, for which the “Score (methylene blue)” value under setting [10] is on record as 1.0 ± 0.3.
In the case of `O=C[C@H](O)[C@H](O)[C@H](O)CO` [Ribose], under setting [5], the “Score (methylene blue)” value is on record as 2.3 ± 0.3.
As for `OCCOCCOCCO` [Triethylene glycol], the “Score (methylene blue)” value by setting is: under setting [8], 1.3 ± 0.3; under setting [11], 3.3 ± 0.3; under setting [5], 3.7 ± 0.3.
Take `O=C[C@H](O)[C@@H](O)[C@H](O)[C@H](O)C(=O)[O-].[Na+]` [Glucuronic acid sodium salt]: the “Effect on pathway closure (in words)” value under setting [2] is recorded as “most effective agents”. Besides, the “Score (methylene blue)” value under setting [6] was 1.0 ± 0.0, the “Score (methylene blue)” value under setting [8] is listed as 3.5 ± 0.3 and the “Score (methylene blue)” value under setting [12] is given as 3.0 ± 0.3.
Turning to `CC(O)CCO` (centres unmarked) [1-3 Butane diol], the “Score (methylene blue)” value (guinea pig, in vivo) turned out to be 0.2 ± 0.2.
In the case of `C[S+](C)[O-]` [Dimethylsulfoxide], under setting [8], the “Score (methylene blue)” value is 1.0 ± 0.0.
Turning to `O=C([O-])[C@H](O)[C@@H](O)[C@H](O)[C@H](O)CO.[Na+]` [Gluconic acid sodium salt], the “Score (methylene blue)” value under setting [8] is recorded as 2.7 ± 0.2, the “Score (methylene blue)” value under setting [12] is 3.3 ± 0.0 and the “Score (methylene blue)” value under setting [11] was determined as 4.5 ± 0.0.
As to `C=C1[C@@H](C)[C@H]2[C@H](Cc3ccccc3)NC(=O)[C@]23[C@H](OC(C)=O)/C=C/[C@@](C)(O)C(=O)[C@@H](C)C/C=C/[C@H]3[C@@H]1O` [Cytochalasin D, reference compound], the “Score (methylene blue)” value (additive concentration 0.025%, 24 h, scale 0 to 5, 0.5 or greater significant) was 1.5 ± 0.0.
As for Insulin [reference compound], the “Score (methylene blue)” value (additive concentration 3 mM, 24 h, scale 0 to 5, 0.5 or greater significant) is on record as 0.2 ± 0.2.
`CC(C(=O)O)c1cccc(C(=O)c2ccccc2)c1` (centres unmarked) [Ketoprofen Na, reference compound]: the “Effect on pathway closure (in words)” value under setting [2] was “significant effect”. Further, the “Score (methylene blue)” value under setting [3] is recorded as 2.3 ± 0.6.
Regarding `O=C(O)CN(CCN(CC(=O)O)CC(=O)O)CC(=O)O` [EDTA], under “guinea pig, in vivo”, the “Effect on pathway closure (in words)” value is given as “most effective agents in preventing pathway closure” and the “Score (methylene blue)” value is reported as 1.3 ± 0.2.
In the case of `CC(C)O` [Isopropyl alcohol], the “Score (methylene blue)” value under setting [11] worked out at 0.2 ± 0.2.
As for `CC(O)C(C)O` (centres unmarked) [2-3 Butane diol], the “Score (methylene blue)” value (guinea pig, in vivo) is given as 2.2 ± 0.2.
On to PEG-350, for which the “Score (methylene blue)” value under setting [5] came out at 0 ± 0.
As for `CC(=O)[O-].[Na+]` [Sodium acetate], the “Score (methylene blue)” value (guinea pig, in vivo) was determined as 1.7 ± 0.1.
Take SIKVAV [reference compound]: the “Score (methylene blue)” value under setting [10] came out at 0.5 ± 0.5.
